# Measurements published in patent publication US9315494B2, “Alkyl-amide-substituted pyridyl compounds useful as modulators of IL-12, IL-23 and/or IFNα responses” (Bristol-Myers Squibb Company, priority 2012, dated 2016).
# Read-outs that look alike come from different tables or passages of the source.
# Experiments:
# [1] = tested on: IFNα-stimulated STAT-dependent luciferase reporter in Kit225 T cells; test: Kit225 T cell assay, IFNα stimulated STAT-dependent luciferase reporter; type: cell-based, human
# Outline: (§1)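 Kit225 T cells carrying a stably integrated STAT-luciferase reporter, in RPMI with 10% heat-inactivated FBS, were stimulated with 20 ng/mL IL-23 or 200 U/mL IFNα for 5-6 h. Readout was luminescence from the luciferase reporter.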
# [2] = molecular target: T1, recombinantly expressed His-tagged protein corresponding to amino acids 575-869 of human Tyk2 (Homo sapiens, UniProt P29597); test: Probe displacement assay (scintillation proximity, [3H] probe); type: binding; conditions: 2.5 nM Tyk2 (575-869), 40 nM radiolabeled probe, 30 minutes at room temperature
# T1 construct: corresponding to amino acids 575-869 of human Tyk2; made in house
# Experimental: The probe displacement assay is conducted as follows: In a […], test compounds along with recombinantly expressed His-tagged protein corresponding to amino acids 575-869 of human Tyk2 (sequence shown below) at 2.5 nM, 40 nM ((R)-N-(1-(3-(8-methyl-5-(methylamino)-8H-imidazo[4,5-d]thiazolo[5,4-b]pyridin-2-yl)phenyl)ethyl)-2-([^3H]methylsulfonyl)benzamide) (preparation described below) and 80 μg/mL Copper His-Tag scintillation proximity assay beads (Perkin Elmer, Catalog #RPNQ0095) in 50 mM HEPES, pH 7.5, containing 100 μg/mL bovine serum albumin and 5% DMSO were incubated for 30 minutes at room temperature. The amount of radiolabeled probe (preparation described below) bound to Tyk2 was then quantified by scintillation counting, and the inhibition by the test compound calculated by comparison to wells either with no inhibitor (0% inhibition) or without Tyk2 (100% inhibition).
# Protein Sequence of recombinant Hig-tagged Tyk2 (575-869):
# The preparation of radiolabeled probe, (R)-N-(1-(3-(8-methyl-5-(methylamino)-8H-imidazo[4,5-d]thiazolo[5,4-b]pyridin-2-yl)phenyl)ethyl)-2-([^3H]methylsulfonyl)benzamide, was performed as described below: […]
# [3] = tested on: IL-23-stimulated STAT-dependent luciferase reporter in Kit225 T cells; test: Kit225 T cell assay, IL-23 stimulated STAT-dependent luciferase reporter; type: cell-based, human; conditions: Kit225 T cells, 20 ng/mL human recombinant IL-23, 5-6 hours, luciferase; read-out: IL23 (Kit225 T Cell Inhibition Data)
# Outline: as §1
# [4] = Kit225 T cells, 200 U/mL human recombinant IFNα, 5-6 hours, luciferase, read-out: IFNα (Kit225 T Cell Inhibition Data)
# T1 sequence (P29597 575-869): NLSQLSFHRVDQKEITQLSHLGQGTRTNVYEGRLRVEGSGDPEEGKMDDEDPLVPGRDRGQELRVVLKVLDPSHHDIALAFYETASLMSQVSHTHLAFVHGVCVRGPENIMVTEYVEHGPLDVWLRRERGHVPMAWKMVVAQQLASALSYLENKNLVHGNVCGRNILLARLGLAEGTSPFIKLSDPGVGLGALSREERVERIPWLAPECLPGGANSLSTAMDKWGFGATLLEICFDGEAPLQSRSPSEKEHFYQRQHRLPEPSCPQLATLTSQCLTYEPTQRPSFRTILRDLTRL
"IC50 [1, 4] [nM]",EC50 [2] [nM],IC50 [3] [nM],"IC50 ([1]; Homo sapiens, KIT225, read-out: IFNα (Kit225 T Cell Inhibition Data)) [nM]",SMILES
1370,155,2180,–,CNC(=O)c1cnc(Nc2ccc(C(=O)NC3CC3)cn2)cc1Nc1ccc(Cl)cc1OC [Example 261]
10,4.2,10,–,CNC(=O)c1cnc(Nc2ccc(F)cn2)cc1Nc1ccccc1N(C)S(C)(=O)=O [Example 426]
20,6.3,40,–,CNC(=O)c1cnc(Nc2cc(C)nc(C)n2)cc1Nc1cc(F)cc(F)c1OC [Example 409]
1020,18.8,1040,–,CNC(=O)c1cnc(Nc2cc(C#N)ccn2)cc1Nc1cccc(F)c1C(N)=O [Example 176]
17,8,11,–,[2H]C([2H])([2H])NC(=O)c1cnc(Nc2ccc(C)nn2)cc1Nc1cccc(-c2csc(C)n2)c1OC [Example 448]
20,6.1,100,–,CCn1ncnc1-c1cccc(Nc2cc(Nc3cc(C)nc(C)n3)ncc2C(=O)NC)c1OC [Example 383]
870,68.7,173,–,CNC(=O)c1cnc(Nc2cc(C#N)ccn2)cc1Nc1ccc(S(C)(=O)=O)cc1OC [Example 43]
1850,5.5,4100,–,CNC(=O)c1cnc(Nc2ccc(CO)cn2)cc1Nc1ccccc1C(N)=O [Example 79]
10,5.3,9.98,–,CNC(=O)c1cnc(Nc2cc(C)c(F)cn2)cc1Nc1cccc(-c2nnco2)c1OC [Example 358]
50,17.7,246,–,CNC(=O)c1cnc(Nc2ccc(N3CCOCC3)cn2)cc1Nc1ccc(Cl)cc1OC [Example 104]
1170,53.5,1460,–,CNC(=O)c1cnc(Nc2ccc(F)cn2)cc1Nc1cc(Cl)ccc1OC [Example 203]
10,1.1,20,–,[2H]C([2H])([2H])NC(=O)c1cnc(Nc2ccccn2)cc1Nc1cccc(-c2ncc(F)cn2)c1OC [Example 449]
120,32.4,189,–,CNC(=O)c1cnc(Nc2ccc(N3CCCC3=O)cn2)cc1Nc1ccc(Cl)cc1OC [Example 107]
60,6.5,110,–,[2H]C([2H])([2H])NC(=O)c1cnc(Nc2ccc(F)cn2)cc1Nc1ccccc1S(C)(=O)=O [Example 298]
2.86,3.5,5.83,–,CNC(=O)c1cnc(Nc2cc(C)nc(C)n2)cc1Nc1cccc(-c2ccn(C)n2)c1OC [Example 393]
3150,246,4270,–,CNC(=O)c1cnc(Nc2ccc(F)cn2)cc1Nc1ccc(N2CCOCC2)cc1 [Example 211]
10,4.8,10,–,CNC(=O)c1cnc(Nc2cc(C)nc(C)n2)cc1Nc1cccc(-c2nnc(C)[nH]2)c1OC [Example 365]
10,6,9.66,–,CNC(=O)c1cnc(Nc2cc(C)c(F)cn2)cc1Nc1cccc(-c2ccn(C)n2)c1OC [Example 391]
140,8.2,260,–,CNC(=O)c1cnc(Nc2cncc(C)n2)cc1Nc1ccccc1S(C)(=O)=O [Example 42]
370,40.6,499,–,CNC(=O)c1cnc(Nc2ccc(C#N)c(C)n2)cc1Nc1ccc(F)cc1OC [Example 152]
10,7.3,20,–,[2H]C([2H])([2H])NC(=O)c1cnc(Nc2cc(C(C)(C)O)ccn2)cc1Nc1cccc(-c2ncc(F)cn2)c1OC [Example 450]
180,5.7,310,–,CNC(=O)c1cnc(Nc2cc(OC(C)C)ncn2)cc1Nc1ccccc1S(C)(=O)=O [Example 422]
80,11.5,150,–,[2H]C([2H])([2H])NC(=O)c1cnc(Nc2cc(C)c(C#N)c(C)n2)cc1Nc1ccccc1S(C)(=O)=O [Example 438]
4490,22.7,5580,–,CNC(=O)c1cnc(Nc2ccc(O)cn2)cc1Nc1ccccc1C(N)=O [Example 81]
120,3,80,–,CCc1cc(Nc2cc(Nc3ccccc3S(C)(=O)=O)c(C(=O)NC)cn2)ncn1 [Example 420]
–,633,–,12500,CNC(=O)c1cnc(Nc2ccc3ccccc3n2)cc1NC1CCCC1 [Example 283]
230,–,293,–,CNC(=O)c1cnc(Nc2ccc(F)cn2)cc1Nc1ccc(C(=O)N2CCCCC2)cc1OC [Example 239]

"IC50 [1, 4] [nM]",EC50 [2] [nM],IC50 [3] [nM],"IC50 ([1]; Homo sapiens, KIT225, read-out: IFNα (Kit225 T Cell Inhibition Data)) [nM]",SMILES
1080,–,2200,–,CCS(=O)(=O)c1ccccc1Nc1cc(Nc2ccc(F)cn2)ncc1C(=O)NC [Example 32]
150,–,456,–,CNC(=O)c1cnc(Nc2ccc(N3CCOCC3)cn2)cc1Nc1ccc(Br)cc1OC [Example 221]
310,–,510,–,CNC(=O)c1cnc(Nc2cc(-n3ccccc3=O)ccn2)cc1Nc1cc(F)cc(F)c1OC [Example 167]
100,–,70,–,CNC(=O)c1cnc(Nc2ccc(F)cn2)cc1Nc1cccc(C(=O)NC)c1OC [Example 316]
250,–,535,–,CNC(=O)c1cnc(Nc2ccc(F)cn2)cc1Nc1ccccc1OC(F)F [Example 122]
1310,–,3150,–,CNC(=O)c1cnc(Nc2ccc3ccccc3n2)cc1NC1CCCC1C(N)=O (stereo not shown) [Example 288]
430,–,680,–,CNC(=O)c1cnc(Nc2ccn(C(C)C)n2)cc1Nc1cc(F)cc(F)c1OC [Example 408]
3290,–,7300,–,CCNC(=O)c1cnc(Nc2ccc(F)cn2)cc1Nc1ccccc1C(N)=O [Example 295]
180,–,430,–,CNC(=O)c1cnc(Nc2cc(C)c(F)cn2)cc1Nc1cccc(C(=O)NCCCO)c1OC [Example 348]
3250,–,3910,–,CNC(=O)c1cnc(Nc2cc(C(N)=O)ccn2)cc1Nc1ccc(Cl)cc1OC [Example 97]
60,–,183,–,CNC(=O)c1cnc(Nc2ccccn2)cc1Nc1cc(F)cc(F)c1OC [Example 131]
1020,–,590,–,CNC(=O)c1cnc(Nc2ccc(F)cn2)cc1Nc1ccc(-c2nnco2)cc1S(C)(=O)=O [Example 312]
3600,–,5060,–,CNC(=O)c1cnc(Nc2ccc(C(=O)N3CCOCC3)cn2)cc1Nc1ccc(Cl)cc1OC [Example 263]
140,–,220,–,CNC(=O)c1cnc(Nc2cc(C#N)ccn2)cc1Nc1cc(F)ccc1S(C)(=O)=O [Example 58]
8260,–,7200,–,CNC(=O)c1cnc(Nc2ncccc2Cl)cc1Nc1ccccc1C(N)=O [Example 90]
3.99,–,4.89,–,CNC(=O)c1cnc(Nc2cc(C)c(F)cn2)cc1Nc1cccc(-c2ncn(C)n2)c1OC [Example 371]
1070,–,1240,–,CNC(=O)c1cnc(Nc2ccc3[nH]ccc3n2)cc1Nc1ccc(F)cc1OC [Example 160]
210,–,188,–,CNC(=O)c1cnc(Nc2cc(F)ccn2)cc1Nc1cc(F)cc(F)c1OC [Example 137]
9.47,–,20,–,CNC(=O)c1cnc(Nc2ccc(C(F)(F)F)cn2)cc1Nc1cccc(-c2ncn(C)n2)c1OC [Example 375]
1540,–,3930,–,CNC(=O)c1cnc(Nc2ccc(C#N)cn2)cc1Nc1ccccc1C(N)=O [Example 92]
4330,–,4930,–,CCc1cccc(Nc2cc(Nc3ccc(N4CCOCC4)cn3)ncc2C(=O)NC)c1 [Example 215]
60,–,161,–,CNC(=O)c1cnc(Nc2ccc(F)cn2)cc1Nc1ccc(Cl)cc1S(C)(=O)=O [Example 11]
460,–,215,–,CNC(=O)c1cnc(Nc2ccc(C#N)cn2)cc1Nc1ccc(F)cc1OCF [Example 162]
310,–,488,–,CNC(=O)c1ccnc(Nc2cc(Nc3ccc(Cl)cc3OC)c(C(=O)NC)cn2)c1 [Example 254]
260,–,250,–,CNC(=O)c1cnc(Nc2ccc(C#N)c(C)n2)cc1Nc1ccccc1S(C)(=O)=O [Example 440]
90,–,200,–,CNC(=O)c1cnc(Nc2cc(C)ccn2)cc1Nc1ccc(F)cc1S(C)(=O)=O [Example 52]

SMILES,"IC50 [1, 4] [nM]",EC50 [2] [nM],IC50 [3] [nM],"IC50 ([1]; Homo sapiens, KIT225, read-out: IFNα (Kit225 T Cell Inhibition Data)) [nM]"
CNC(=O)c1cnc(Nc2ccncn2)cc1Nc1ccccc1S(C)(=O)=O [Example 37],1150,–,690,–
